Test results from patent publication US11274097B2, “2-(het)aryl-substituted condensed bicyclic heterocycle derivatives as pest control agents” (BAYER CROPSCIENCE AKTIENGESELLSCHAFT, priority 2014, dated 2022).
Where two headings read alike, the source gives them in different places.

How the values were obtained:
[1] = log P by HPLC on a reversed-phase column (C 18), EEC Directive 79/831 Annex V.A8; assay type: physicochemical; conditions: for LOGP_NEUTRAL: pH 7.8, 0.001 molar aqueous ammonium hydrogencarbonate/acetonitrile; for chromatographic logP: reversed-phase HPLC column (C 18)
Description: The log P values are measured according to EEC Directive 79/831 Annex V.A8 by HPLC (high-performance liquid chromatography) on a reversed-phase column (C 18). Temperature: 55° C. The LC-MS determination in the acidic range is effected at pH 2.7 using 0.1% aqueous formic acid and acetonitrile (contains 0.1% formic acid) as eluents, linear gradient from 10% acetonitrile to 95% acetonitrile. Called log P (HCOOH) in the table. LC-MS determination in the neutral range is effected at pH 7.8 with 0.001 molar aqueous ammonium hydrogencarbonate solution and acetonitrile as eluents; linear gradient from 10% acetonitrile to 95% acetonitrile. Called log P (neutral) in the table. Calibration is effected with unbranched alkan-2-ones (having 3 to 16 carbon atoms) with known log P values (log P values determined on the basis of the retention times by linear interpolation between two successive alkanone s).

[2] = system: Phaedon cochleariae; assay: Phaedon cochleariae spray test (PHAECO); assay type: in vivo; conditions: larvae, after 7 days
Description: Phaedon cochleariae—Spray Test (PHAECO)
(§1) Solvent: 78.0 parts by weight of acetone • • 1.5 parts by weight of dimethylformamide
(§2) Emulsifier: alkylaryl polyglycol ether
(§3) To produce an appropriate active ingredient formulation, 1 part by weight of active ingredient is dissolved using the stated parts by weight of solvent and made up with water containing an emulsifier concentration of 1000 ppm until the desired concentration is attained. To produce further test concentrations, the preparation is diluted with emulsifier-containing water.
Discs of Chinese cabbage leaves (Brassica pekinensis) are sprayed with an active ingredient formulation of the desired concentration and, after drying, populated with larvae of the mustard beetle (Phaedon cochleariae).
After 7 days, the efficacy in % is determined. 100% means that all the beetle larvae have been killed; 0% means that no beetle larvae have been killed.

[3] = system: Spodoptera frugiperda; assay: Spodoptera frugiperda spray test (SPODFR); assay type: in vivo; conditions: application rate 500 g/ha; maize leaf discs; after 7 days
Description: Spodoptera frugiperda—Spray Test (SPODFR)
as §1, §2, §3
Leaf discs of maize (Zea mays) are sprayed with an active ingredient formulation of the desired concentration and, after drying, populated with caterpillars of the armyworm (Spodoptera frugiperda).
After 7 days, the efficacy in % is determined. 100% means that all the caterpillars have been killed; 0% means that no caterpillars have been killed.

[4] = system: Myzus persicae; assay: Myzus persicae spray test (MYZUPE), Chinese cabbage leaf discs; assay type: in vivo; conditions: after 6 days
Description: Myzus persicae—Spray Test (MYZUPE)
Solvent: 78 parts by weight of acetone • • 1.5 parts by weight of dimethylformamide
Emulsifier: alkylaryl poly glycol ether
as §3
Discs of Chinese cabbage leaves (Brassica pekinensis) infested by all stages of the green peach aphid (Myzus persicae) are sprayed with an active ingredient formulation of the desired concentration.
After 6 days, the efficacy in % is determined. 100% means that all the aphids have been killed; 0% means that none of the aphids have been killed.

[5] = system: Tetranychus urticae; assay: Tetranychus urticae spray test, OP-resistant (TETRUR); assay type: in vivo; conditions: bean leaf discs, after 6 days
Description: Tetranychus urticae—Spray Test, OP-Resistant (TETRUR)
as §1, §2, §3
Discs of bean leaves (Phaseolus vulgaris) infested by all stages of the greenhouse red spider mite (Tetranychus urticae) are sprayed with an active ingredient formulation of the desired concentration.
After 6 days, the efficacy in % is determined. 100% means that all the spider mites have been killed; 0% means that none of the spider mites have been killed.

[6] = acidic range, pH 2.7, 0.1% aqueous formic acid/acetonitrile, 55° C.

| Structure (SMILES) | LOGP_HCOOH [1, 6] | LOGP_NEUTRAL ([1]; neutral range, 55° C.) | chromatographic logP ([1]; acidic range, pH 2.7, 0.1% aqueous formic acid/acetonitrile, 55° C., read-out: LOGP_HCOOH) | chromatographic logP ([1]; neutral range, pH 7.8, read-out: log P (neutral)) | efficacy ([2]; application rate 500 g/ha) | efficacy [3] | efficacy ([4]; application rate 500 g/ha) | efficacy ([5]; application rate 500 g/ha) | efficacy ([2]; application rate 100 g/ha) | efficacy ([5]; application rate 100 g/ha) | efficacy ([4]; application rate 20 g/ha) |
| --- | --- | --- | --- | --- | --- | --- | --- | --- | --- | --- | --- |
| CC[S+]([O-])c1cc(C(F)(F)F)cnc1-c1nc2cc(C(F)(F)C(F)(F)F)ncc2n1C (stereo not shown) [Example I-63] | 3.75 | 3.62 |  |  | 83% | 100% |  |  |  |  |  |
| CCS(=O)(=O)c1cc(C(F)(F)F)cnc1-c1nc2cc(Cl)ncc2n1C [Example I-52] | 2.61 | 2.51 |  |  | 100% |  | 100% |  |  |  |  |
| CCSc1ccc(Cl)cc1-c1nc2cc(C(F)(F)F)ncc2n1C [Example I-19] | 3.43 | 3.38 |  |  | 100% | 83% | 90% | 90% |  |  |  |
| CC[S+]([O-])c1ccccc1-c1nc2cc(C(F)(F)F)ncc2n1C (stereo not shown) [Example I-22] | 1.90 | 1.87 |  |  | 100% |  | 100% | 90% |  |  |  |
| CCSc1cc(Cl)ccc1-c1nc2cc(C(F)(F)F)ncc2n1C [Example I-42] | 3.46 | 3.39 |  |  | 100% | 100% | 90% | 90% |  |  |  |
| CCSc1cc(C(F)(F)F)cnc1-c1nc2nc(C(F)(F)F)ncc2n1C [Example I-28] | 3.29 | 3.22 |  |  | 100% |  |  | 90% |  |  |  |
| Cn1c(-c2ccc(F)cc2[S+](C)[O-])nc2cc(C(F)(F)F)ncc21 (stereo not shown) [Example I-12] | 1.88 | 1.83 |  |  | 100% |  | 90% |  |  |  |  |
| CCSc1ccccc1-c1nc2cc(C(F)(F)F)ncc2n1C [Example I-17] | 2.94 | 2.87 |  |  |  |  | 90% |  | 83% |  |  |
| Cn1c(-c2ccc(Cl)cc2[S+](C)[O-])nc2cc(C(F)(F)F)ncc21 (stereo not shown) [Example I-10] | 2.15 | 2.08 |  |  | 100% |  | 100% |  |  |  |  |
| CCSc1ccc(OC)nc1-c1nc2cc(C(F)(F)F)ncc2n1C [Example I-53] | 3.12 |  |  |  | 100% |  |  | 90% |  |  |  |
| CSc1cc(F)ccc1-c1nc2cc(C(F)(F)F)ncc2n1C [Example I-4] | 2.70 | 2.65 |  |  | 100% |  | 90% |  |  |  |  |
| CC[S+]([O-])c1ccc(Cl)cc1-c1nc2cc(C(F)(F)F)ncc2n1C (stereo not shown) [Example I-13] | 2.44 | 2.34 |  |  | 100% |  | 100% | 90% |  |  |  |
| CC[S+]([O-])c1cc(Cl)ccc1-c1nc2cc(C(F)(F)F)ncc2n1C (stereo not shown) [Example I-44] | 2.45 | 2.36 |  |  | 100% |  | 100% | 90% |  |  |  |
| CCSc1ccc(NC(C)=O)nc1-c1nc2cc(C(F)(F)F)ncc2n1C [Example I-50] | 2.39 | 2.27 |  |  | 100% |  | 90% |  |  |  |  |

More lines, main results first:

| LOGP_HCOOH [1, 6] | LOGP_NEUTRAL ([1]; neutral range, 55° C.) | chromatographic logP ([1]; acidic range, pH 2.7, 0.1% aqueous formic acid/acetonitrile, 55° C., read-out: LOGP_HCOOH) | chromatographic logP ([1]; neutral range, pH 7.8, read-out: log P (neutral)) | Structure (SMILES) | efficacy ([2]; application rate 500 g/ha) | efficacy [3] | efficacy ([4]; application rate 500 g/ha) | efficacy ([5]; application rate 500 g/ha) | efficacy ([2]; application rate 100 g/ha) | efficacy ([5]; application rate 100 g/ha) | efficacy ([4]; application rate 20 g/ha) |
| --- | --- | --- | --- | --- | --- | --- | --- | --- | --- | --- | --- |
| 3.17 | 3.10 |  |  | CC[S+]([O-])c1cc(C(F)(F)F)cnc1-c1nc2cc(C(F)(F)F)ncc2n1C (stereo not shown) [Example I-37] | 100% | 100% |  |  |  |  |  |
|  | 2.76 | 2.81 | 2.76 | Cn1c(-c2ncc(C(F)(F)F)cc2[S+](C)[O-])nc2cc(C(F)(F)F)ncc21 (stereo not shown) [Example I-26, 3-methyl-2-[3-(methylsulphinyl)-5-(trifluoromethyl)pyridin-2-yl]-6-(trifluoro-methyl)-3H-imidazo[4,5-c]pyridine] | 100% | 100% |  |  |  |  |  |
| 2.53 |  |  |  | CCS(=O)(=O)c1ccc(OC)nc1-c1nc2cc(C(F)(F)F)ncc2n1C [Example I-45] | 100% |  | 90% |  |  |  |  |
| 3.16 | 3.07 |  |  | Cn1c(-c2ncc(C(F)(F)F)cc2S(=O)(=O)CCF)nc2cc(C(F)(F)F)ncc21 [Example I-54] | 100% | 100% |  |  |  |  |  |
| 2.39 | 2.32 |  |  | CCSc1cccnc1-c1nc2cc(C(F)(F)F)ncc2n1C [Example I-24] | 100% |  | 100% |  |  |  |  |
| 4.02 | 3.96 |  |  | CCSCCSc1cc(C(F)(F)F)cnc1-c1nc2cc(C(F)(F)F)ncc2n1C [Example I-23] |  |  | 100% |  |  |  |  |
| 2.68 | 2.63 |  |  | CCS(=O)(=O)c1ccc(Cl)cc1-c1nc2cc(C(F)(F)F)ncc2n1C [Example I-38] | 100% |  | 90% |  |  |  |  |
| 2.70 | 2.64 |  |  | CCS(=O)(=O)c1c(C(F)(F)F)ccnc1-c1nc2cc(C(F)(F)F)ncc2n1C [Example I-48] | 100% | 83% | 100% |  |  | 90% |  |
| 2.05 | 1.99 |  |  | CCS(=O)(=O)c1ccc(NC(C)=O)nc1-c1nc2cc(C(F)(F)F)ncc2n1C [Example I-49] | 100% |  | 90% |  |  |  |  |
| 2.69 | 2.61 |  |  | CCS(=O)(=O)c1cc(Cl)ccc1-c1nc2cc(C(F)(F)F)ncc2n1C [Example I-43] | 100% |  | 100% |  |  |  |  |
| 4.10 | 4.02 |  |  | CCSc1cc(C(F)(F)F)cnc1-c1nc2cc(C(F)(F)C(F)(F)F)ncc2n1C [Example I-47] | 100% | 100% |  |  |  |  |  |
| 2.71 | 2.63 |  |  | CC[S+]([O-])c1cccnc1-c1nc2cc(C(F)(F)C(F)(F)F)ncc2n1C (stereo not shown) [Example I-61] | 100% | 100% | 90% |  |  |  |  |
| 2.48 |  |  |  | CC[S+]([O-])c1c(C(F)(F)F)ccnc1-c1nc2cc(C(F)(F)F)ncc2n1C (stereo not shown) [Example I-51] | 100% |  | 90% |  |  |  |  |
| 3.52 | 3.45 |  |  | CCC[S+]([O-])c1cc(C(F)(F)F)cnc1-c1nc2cc(C(F)(F)F)ncc2n1C (stereo not shown) [Example I-39] | 100% | 100% |  |  |  |  | 90% |
| 2.98 | 2.92 |  |  | CCSc1cccnc1-c1nc2cc(C(F)(F)C(F)(F)F)ncc2n1C [Example I-46] | 100% | 100% | 90% |  |  |  |  |
| 3.52 | 3.48 |  |  | CCSc1cc(C(F)(F)F)cnc1-c1nc2cc(C(F)(F)F)ncc2n1C [Example I-2] | 100% | 100% |  | 90% |  |  |  |
